According to a melting point compilation (Tetko et al.; mined from patent text by program, amines drawn as free bases though some values may be those of a salt):

melting point	SMILES
226 to 228 °C	NC(=O)c1ccc(-c2ccccc2C(=O)N2Cc3cccn3Cc3ccccc32)cc1C(F)(F)F
124 to 125 °C	CCC12CCCN3CCC4(C(=C(C(=O)OC)C1)Nc1ccccc14)C32 (stereo not drawn)
171 °C	CC(C)(C)C(O)C(C(Sc1ccccc1)c1ccc(F)cc1)n1cncn1 (stereo not drawn)
252 to 254 °C	O=C1c2ccccc2C2(O)Oc3c(ccc4c3CCCC4)C12O (stereo not drawn)
197 to 199 °C	CONC(=O)c1ccc(-c2ccc3nnn(Cc4ccc5ncccc5c4)c3n2)cc1F
150 to 152 °C	COc1ccc(C=Cc2ncn(CC(O)(Cn3cncn3)c3ccc(F)cc3F)n2)cc1 (stereo not drawn)
215 to 217 °C	CCN(CC)CCNC(=O)c1c(I)ccc2c(=O)c3ccccc3[nH]c12
81 °C	CCC(CCc1cc(-c2ccccc2)nc2ccccc12)C(=O)N(CC)CC (stereo not drawn)
134 to 136 °C	COC(=O)c1cc(=O)c(OCc2ccccc2)co1
265 to 268 °C	O=C(NC1CC1)c1ccc(N2CCN(Cc3cnc4c(c3)NC(=O)[C@@H]3CCCN43)CC2)cc1
235 to 236 °C	N#Cc1ccc2c(c1)C(=O)c1ccccc1CN2
110 °C	Cc1cccc(C(=O)O)c1N(C)S(=O)(=O)c1ccc(OCCCCNC(=O)c2ccc3c(c2)OCO3)cc1
112 to 114 °C	O=C(Oc1ccccc1)N1CCN(c2nn(S(=O)(=O)c3ccccc3)c3ccccc23)CC1
86 to 87 °C	CC(=O)Oc1c(C)c(C)c2c(c1C)C(c1ccc(F)cc1)C(C)(C)O2 (stereo not drawn)
240 to 241 °C	O=C(O)c1cn(C2CC2)c2nc3cc(N4CCNC(c5ccco5)C4)c(F)cc3cc2c1=O (racemic)
200 to 201 °C	Cc1sc2nc(SCCCN3CCN(c4nc5ccccc5s4)CC3)n(N)c(=O)c2c1C
118 to 120 °C	COc1ccccc1N1CCN(C(=O)CCCN2CC=C(c3c[nH]c4cc(F)ccc34)CC2)CC1
100 to 102 °C	O=C1c2cc(OCc3ccccc3)ccc2OCC1Oc1ccccc1 (stereo not drawn)

melting point	SMILES
56 to 58 °C	CCOC(=O)CC(=O)CC(c1ccccc1)c1ccc(OC)c(OC2CCCC2)c1 (stereo not drawn)
68 to 70 °C	OCc1ccc(C=Cc2csc3ccccc23)s1
99 to 104 °C	CC1=C(c2ccc(OCC(C)NCC(O)c3cccc(Cl)c3)cc2)CCC(=O)N1 (stereo not drawn)
52 to 56 °C	COc1ccc(C(=C(c2ccccc2)C(F)(F)F)c2ccc(F)cc2)cc1
162 °C	CC1(C)Oc2ccc(C(N)=O)cc2[C@H](NCCc2ccccc2)[C@H]1O (relative stereo)
180 to 181 °C	COc1ccc(-c2cc3n(n2)C(=O)c2ccccc2-3)cc1
127 to 130 °C	O=C(NNC(=O)C(F)(F)C(O)(Cn1cncn1)c1ccc(F)cc1F)c1ccc(F)cc1 (stereo not drawn)
173 to 175 °C	CNC(=O)c1cc2c(Oc3ccc(C(=O)N4CCOCC4)cc3)cncc2s1
138 °C	O=C(O)CCCc1cc2nc(Cl)ccc2n1S(=O)(=O)c1ccccc1OC(F)(F)F
156 °C	Cn1cc(-c2ccccc2)c(=O)c(-c2cc(Cl)ccc2Cl)c1
50.8 to 54.4 °C	CC(C)N1Cc2ccccc2N(CCN2CCC(c3c[nH]c4cc(F)ccc34)C2)S1(=O)=O (stereo not drawn)
118 to 119 °C	c1ccc2c(c1)-c1ccccc1C2CN1CCCCC1
213 to 215 °C	COc1cc(OC)c(-c2ccc(C)s2)cc1C=CC(=O)c1ccc(C(=O)O)cc1
176 °C	Cn1ncnc1COc1nn2c(-c3ccccc3F)nncc2c1-c1cccc(F)c1F
180 to 184 °C	O=C1N=C(N2CCSCC2)SC1=Cc1cccc(-c2cc(F)c(O)c(C34CC5CC(CC(C5)C3)C4)c2)c1
130 °C	CCOC(=O)c1c(O)c2cc(C)ccc2n(Cc2ccc(F)cc2)c1=O
204 to 206 °C	N=C(N)c1ccc(NC(=O)N(c2cccc(C(=N)N)c2)C2CCCCCC2)cc1

Further lines, the compound ahead of its results:

SMILES	melting point
CCn1c(=O)c(CC(=O)OC)cc2ccc(O)cc21	176 to 178 °C
CCN(CC)C(=O)Cn1c(=N)sc2cc(OC(F)(F)F)ccc21	223 °C
ClC(c1ccccc1)(c1ccccc1)c1ccncc1	84.5 to 86.5 °C
COc1cc(Cl)c(N)cc1-c1nc(C)c(-c2cccnc2)[nH]1	173 to 175 °C
CCCc1cc(O)nc(-c2ccncc2)n1	173 to 174 °C
COC(=O)CC(c1ccc(F)cc1)C(C(=O)OC)C(=O)OC (stereo not drawn)	75 to 76 °C
COC(=O)c1cncc(-c2ccc(OC)c(N)c2)c1	98 to 99 °C
O=C1C=C(Br)C(CBr)(NCc2ccccc2)O1 (stereo not drawn)	137 to 139 °C
ClC1(Cl)C(c2ccccc2)C1(c1ccccc1)c1ccccc1 (stereo not drawn)	106 to 107 °C
COCOc1ccc(N2C(=O)[C@@H](N=[N+]=[N-])[C@H]2C=Cc2ccccc2)cc1 (relative stereo)	111 to 112 °C
CC(=NOCCCOc1ccccc1)C(=O)O	86 to 88 °C
COc1ccc(-c2cccs2)c2c1c(CCN(C)C)cn2C	131 to 133 °C
CC=CC(=O)C1C(C)CCCC1(C)C (stereo not drawn)	8 to 9 °C
CC(C)(C)OC(=O)CN(C(=O)OC(C)(C)C)[C@H](CC1CCCCC1)C(=O)N1CCC[C@H]1C(=O)NC1CCc2nc(N)sc2C1 (stereo partly drawn)	95 to 101 °C
CS(=O)(=O)CS(=O)(=O)OCCCl	60 to 62 °C
O=c1[nH]c(=O)n2c3c1cnn3C(c1cccnc1)=CC2	292 to 295 °C
COc1ccc2c(c1OC)CCCC2=O	103 to 104 °C
CC(C)(C)c1ccc(/C=C/CO[Si](C)(C)C(C)(C)C)cc1[N+](=O)[O-]	33 to 34 °C
Clc1ccc2c(c1)NCc1ccccc1S2	125 to 127 °C
CCOC(=O)CSc1ccc2nncn2n1	130 to 133 °C
COC(=O)CN(CC(=O)OC)S(=O)(=O)c1ccc(C)cc1	99 to 100 °C
Cc1cc2[nH]c3ccncc3c(=O)n2n1	> 300 °C
COc1ccc2c(c1)sc1c(C(=O)Nc3nnn[nH]3)cnc(=O)n12	234 to 235 °C

SMILES	melting point
CCOC(=O)c1cc([N+](=O)[O-])ccc1NC(=O)OC(C)(C)C	118 to 121 °C
Cc1ccc(NC(=S)NCc2ccc3c(c2)CN(C2CCC(=O)NC2=O)C3=O)cc1C(F)(F)F (stereo not drawn)	238 to 240 °C
COc1ccc2cc(C#N)sc2c1	82 to 83 °C
O=C(O)C1C=CCn2c(=O)n(CCCl)c(=O)n21 (stereo not drawn)	150 to 151 °C
N#Cc1ccnc(Oc2ccc(CCNc3ncnc4scnc34)cc2)c1	145 to 148 °C
COC(=O)Cc1c(C(=O)OC)ccn1CCO	52 to 54 °C
Cc1ccc(CNC(=O)C(=O)NCCc2ccccn2)n1C	147 to 149 °C
CCOC(=O)C(C)Oc1ncn(-c2cccc(F)c2)n1 (stereo not drawn)	35 to 37 °C
O=C1NC(=O)C(c2ccc(N=Cc3ccc(Cl)c(Cl)c3)cc2)S1 (stereo not drawn)	216 to 218 °C
N#CCCc1ccc(OCC2(O)CN3CCC2CC3)cc1 (stereo not drawn)	92 to 94 °C
CC(C)=NOCc1nc2c(N)nc3cc(Br)ccc3c2s1	211 to 213 °C
COC(=O)C(=O)c1occc1/C=C/c1ccccc1	116 °C
CCCC(C)c1nn(-c2ccc(C(F)(F)F)cn2)cc1C=O (stereo not drawn)	63 to 64 °C
COc1ccc2c(ccn3c(C)nnc23)c1	183 to 184 °C
O=C(Nc1ccccc1)c1cccc(Nc2ccccc2)c1	134 to 135 °C
CCOC(=O)c1cc([N+](=O)[O-])c(Cl)c(S(N)(=O)=O)c1	154 °C
Cc1cc(O)c(O)cc1C	71 to 72 °C
NC(=O)c1cc2c(cc1OCC1CCCCC1)OCCC[C@H]2O	164 to 165 °C
CC(OC(=O)Nc1ccc(-c2ncn(-c3ccc(OC(F)(F)F)cc3)n2)cc1)C1CC1 (stereo not drawn)	123 to 124 °C
Nc1nc(O)c2c(n1)NCC(CCc1ccc(C(=O)N[C@@H](CCC(=O)O)C(=O)O)c(F)c1)C2 (stereo partly drawn)	199 to 209 °C
O=C1NCC2CC1c1ccccc12 (stereo not drawn)	172 to 173 °C
Cc1nc(-c2ccc(OC(C)C)c([N+](=O)[O-])c2)sc1C(=O)OC(C)C	91 to 92 °C
CCCCCCCCCCCCOC(=O)c1ccc(O)c([N+](=O)[O-])c1	70 °C

SMILES	melting point
CC(C)c1cc(C(=O)O)cs1	64 to 67 °C
CC1(C)OC(=O)Nc2ccc(-c3ccc(F)c(F)c3)cc21	207 to 208 °C
Cc1c(NC(=O)CC(C)(C)C)c(C)c2c(c1-c1ccsc1)OCC2c1ccc(C(C)C)cc1 (stereo not drawn)	172 to 174 °C
COC(=O)N[C@@H]1CN2C(=O)N(c3cc(Cl)nc(Cl)c3)C(=O)[C@@]2(Cc2ccc(OC(F)(F)F)cc2)C1	120 °C
CC(C(=O)O)c1ccc(-c2ccc(Br)cc2Br)cc1 (stereo not drawn)	114 to 116 °C
Cc1c(-c2ccccn2)c(N2CC[C@H](N(C)C)C2)c2oc(C3CC3)nc2c1C#N	150 to 151 °C
Cc1csc2nc(-n3cccn3)nc(NCc3ccc4c(c3)OCO4)c12	210 °C
COc1ccc2c(c1O)C13CCNC(C2)C1CC(C)C(=O)C3 (stereo not drawn)	163 to 165 °C
Nc1c2c(=O)n3c(nc2nn1CC(F)(F)F)SCC3	285 to 288 °C
CN(c1ccc(Cl)cc1)c1nc(=O)c2cccnc2s1	189 to 190 °C
CCCC(NS(=O)(=O)c1ccc(Cl)cc1)C(=S)Nc1ccc(CCC(=O)OC)cc1 (racemic)	116 to 118 °C
COc1nc(C2CC2)nc(C(Cl)(Cl)Cl)n1	49 to 51 °C
Nc1ncnc2c1c(Br)cn2COC(O)CCO (stereo not drawn)	170 to 172 °C
C#CCn1cc(C(=O)OCC)sc1=O	70 to 71 °C
CS(=O)(=O)c1ccc(-c2[nH]c(C(O)(C(F)(F)F)C(F)(F)F)nc2-c2ccccc2)cc1	223 to 225 °C
CC(C)(C)c1ccc2c(c1)C=C(C(=O)O)C(C(F)(F)F)O2 (stereo not drawn)	171 to 173 °C
COc1cc(C[C@@H](NC(C)=O)C(=O)O)ccc1OC(C)=O	174 to 175 °C
O=C(c1ccc(Cl)cc1)c1cccc(CBr)c1	123 to 125 °C
CSC(=S)C1(c2ccccn2)SCCCS1	91 °C
CC(C)(Cc1cc([N+](=O)[O-])c(F)cc1Cl)C(=O)O	102 to 104 °C
CCc1nn2ccc3c(c2c1C(C)CNC(C)=O)CCO3 (stereo not drawn)	151 to 153 °C
Cc1cc(C)c(S(=O)(=O)NCCCCNS(=O)(=O)c2c(C)cc(C)cc2C)c(C)c1	156 to 158 °C
